These molecules were tested against Delta-type opioid receptor (Homo sapiens, UniProt P41143) (assay: Displacement of [3H]-DADLE from human delta opioid receptor expressed in CHO cells membrane after 2 hrs by liquid scintillation counting).
Delta-type opioid receptor, sequence (P41143 whole entry): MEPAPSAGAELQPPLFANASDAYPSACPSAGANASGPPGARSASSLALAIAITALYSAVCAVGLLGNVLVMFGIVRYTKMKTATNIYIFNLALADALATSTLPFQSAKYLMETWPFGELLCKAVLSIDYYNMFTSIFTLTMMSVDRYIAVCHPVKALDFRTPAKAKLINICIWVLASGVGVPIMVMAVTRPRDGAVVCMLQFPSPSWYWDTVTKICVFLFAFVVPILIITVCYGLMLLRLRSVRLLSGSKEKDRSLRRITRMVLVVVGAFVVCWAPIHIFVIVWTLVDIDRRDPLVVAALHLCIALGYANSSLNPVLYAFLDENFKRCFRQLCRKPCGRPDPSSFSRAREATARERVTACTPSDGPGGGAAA

SMILES | Ki [µM]
CN1C[C@H](O)[C@]2(c3cccc(O)c3)CCC[C@H]1C2 | 7.2
Oc1cccc([C@@]23CCC[C@@H](C2)N(CCc2ccccc2)C[C@@H]3O)c1 | 5.8
CN1C[C@@H](O)[C@]2(c3cccc(O)c3)CCC[C@H]1C2 | > 15
Oc1cccc([C@@]23CCC[C@@H](C2)N(CCc2ccccc2)C[C@H]3O)c1 | 1
CN1C2CCC[C@@](c3cccc(O)c3)(C2)[C@@H]1CO | > 10
CN1CC2(OCCO2)[C@]2(c3cccc(O)c3)CCC[C@H]1C2 | > 7.8

— BindingDB's records for doi:10.1016/j.ejmech.2012.01.025 (National Institute On Drug Abuse and The National Institute …, 2012)
